Reference: US6063777A, “Iminochlorinaspartic acid derivatives” (Wyeth Lederle Japan, Ltd., priority 1996, dated 2000)

Legend:
[1] = Laser irradiation to extirpated organ: distribution (cancer/organ ratio) by surface fluorescence, N2-pulsed laser, mice bearing Colon 26; type: in vivo, CDF1 mice; details: mouse, tumor/plasma, sodium salt, 10 mg/kg intravenous
Procedure: (§1) CDF1 mice (5 per group) were implanted with tumor tissues of colon cancer Colon 26. Two weeks after the implantation, the mice were given an intravenous injection of sodium salt of each of compounds (I) and (II) (10 mg/kg for each mouse) which had been diluted with a distilled water for injection. At 3 hrs, 6 hrs and 12 hrs after the injection, the blood samples were collected and the organs bearing the tumor tissue were extirpated, irradiated with N2 -pulsed laser (N2, wavelength: 337 nm, 2 ns), and the excited fluorescent spectrum was measured. The wavelengths in the range of 600 to 900 nm were examined based on the peak wavelength of NADH at 470 nm (determination of the distribution of the test compound in the organ by the surface fluorescence method using N2 -pulsed laser spectrophotometry). That is, cancer/organ (or plasma) ratio was determined by calculating the peak wavelength in the range of 600 to 900 nm when the peak wavelength at 470 nm was considered as the basic value, 1.

colon cancer Colon 26 = experiment: as above; type: in vivo, CDF1 mice; details: for Cancer/Brain ratio / Cancer/Kidney ratio / Cancer/Liver ratio / Cancer/Lung ratio / Cancer/Muscle ratio: sodium salt, 10 mg/kg intravenous
Procedure: as §1

choriocapillaris = experiment: Occlusion of choriocapillaris by PDT, histological findings 24 hours after laser irradiation; type: in vivo, rats (Long Evance Rats); details: 16 mg/kg
Procedure: (§2) The following experiments were performed to investigate the optimal treatment parameters (timing of laser irradiation after dosing of the compound; laser irradiation dosage) for selective occlusion of choroidal neoplastic vessels by PDT using the compound of the present invention and a diode laser (produced by Hamamatsu Photonics; wavelength: 672 nm).
(§3) Photocoagulation was induced in rats (Long Evance Rats weighing 200-300 g) by Argon green laser irradiation (irradiation diameter: 100 μm, 140 mW, 0.1 sec) near the retinal papilla on funduc oculi. Ten days after photocoagulation, fundus photographs and fluorescein angiographs were taken and the animals showing development of choroidal neovascularization were used for experiments at the 11th day.
(§4) The compound of the present invention was administered via the tail vein at a dose of 16 mg/kg. After administration, time course distribution of the compound in the eyeball tissues was observed by fluorescence microscopy.
(§5) Laser irradiation was done by using the above-mentioned diode laser. The laser beam was confirmed to extend in the range of 500 μm in diameter on the retinal surface. Duration of irradiation was 4 minutes and the irradiation intensity varied at 30.6, 91.7, 152.9 and 244.9 mW/cm^2 on the retinal surface. These values correspond to 7.4, 22.0, 36.7 and 58.8 J/cm^2, respectively.
(§6) Assessment of the PDT using the compound of the present invention was made based on the fundus photographs taken with a fundus camera (produced by Jenesis Kowa) at 1 hour and 24 hours after laser irradiation. Occlusion of the neoplastic vessels and damage to the surrounding tissues were investigated by fluorescein antiography and histological examinations to assess the selectivity of the therapeutic effect.

retinal capillaries = experiment: Occlusion of retinal capillaries by PDT, histological findings 24 hours after laser irradiation; type: in vivo, rats (Long Evance Rats); details: 16 mg/kg
Procedure: as §2, §3, §4, §5, §6

[2] = 7.4 J/cm^2, irradiation 60 min after administration
[3] = 7.4 J/cm^2, irradiation 120 min after administration
[4] = 7.4 J/cm^2, irradiation 240 min after administration
[5] = 22.0 J/cm^2, irradiation 60 min after administration
[6] = 22.0 J/cm^2, irradiation 120 min after administration
[7] = 22.0 J/cm^2, irradiation 240 min after administration
[8] = 22.0 J/cm^2, irradiation immediately after administration
[9] = 36.7 J/cm^2, irradiation 60 min after administration
[10] = 36.7 J/cm^2, irradiation 120 min after administration
[11] = 36.7 J/cm^2, irradiation 240 min after administration
[12] = 36.7 J/cm^2, irradiation immediately after administration
[13] = 58.8 J/cm^2, irradiation 60 min after administration
[14] = 58.8 J/cm^2, irradiation 120 min after administration
[15] = 58.8 J/cm^2, irradiation 240 min after administration
[16] = 58.8 J/cm^2, irradiation immediately after administration

- Kp at 3 h ([1]; 3 hr): 1.48
- Kp at 6 h ([1]; 6 hr): 1.18
- Kp at 12 h ([1]; 12 hr): 2.37
- Cancer/Brain ratio (colon cancer Colon 26; 3 hr): 11.24
- Cancer/Kidney ratio (colon cancer Colon 26; 3 hr): 1.54
- Cancer/Liver ratio (colon cancer Colon 26; 3 hr): 1.35
- Cancer/Lung ratio (colon cancer Colon 26; 3 hr): 5.02
- Cancer/Muscle ratio (colon cancer Colon 26; 3 hr): 4.19
- Cancer/Brain ratio (colon cancer Colon 26; 6 hr): 15.14
- Cancer/Kidney ratio (colon cancer Colon 26; 6 hr): 1.36
- Cancer/Liver ratio (colon cancer Colon 26; 6 hr): 2.02
- Cancer/Lung ratio (colon cancer Colon 26; 6 hr): 7.85
- Cancer/Muscle ratio (colon cancer Colon 26; 6 hr): 3.72
- Cancer/Brain ratio (colon cancer Colon 26; 12 hr): 15.0
- Cancer/Kidney ratio (colon cancer Colon 26; 12 hr): 1.27
- Cancer/Liver ratio (colon cancer Colon 26; 12 hr): 0.92
- Cancer/Lung ratio (colon cancer Colon 26; 12 hr): 6.45
- Cancer/Muscle ratio (colon cancer Colon 26; 12 hr): 4.73
SMILES: C=Cc1c(C)c2cc3nc(cc4[nH]c(cc5nc(cc1[nH]2)C(C)=C5CCC(=O)NC(CC(=O)O)C(=O)O)c(CCC(=O)NC(CC(=O)O)C(=O)O)c4C)C(C)(O)C3=CC=NO (centres unmarked) [Compound (I)]
- accumulability to cancerous tissues (colon cancer Colon 26; compared with position isomer): much higher accumulability to cancerous tissues as compared with its position isomer
- Occlusion of choriocapillaris (choriocapillaris; [2]): Closed
- Occlusion of choriocapillaris (choriocapillaris; [3]): Open
- Occlusion of choriocapillaris (choriocapillaris; [4]): Open
- Occlusion of choriocapillaris (choriocapillaris; 7.4 J/cm^2, irradiation immediately after administration): Closed
- Occlusion of choriocapillaris (choriocapillaris; [5]): Closed
- Occlusion of choriocapillaris (choriocapillaris; [6]): Closed
- Occlusion of choriocapillaris (choriocapillaris; [7]): Closed
- Occlusion of choriocapillaris (choriocapillaris; [8]): Closed
- Occlusion of choriocapillaris (choriocapillaris; [9]): Closed
- Occlusion of choriocapillaris (choriocapillaris; [10]): Closed
- Occlusion of choriocapillaris (choriocapillaris; [11]): Closed
- Occlusion of choriocapillaris (choriocapillaris; [12]): Closed
- Occlusion of choriocapillaris (choriocapillaris; [13]): Closed
- Occlusion of choriocapillaris (choriocapillaris; [14]): Closed
- Occlusion of choriocapillaris (choriocapillaris; [15]): Closed
- Occlusion of choriocapillaris (choriocapillaris; [16]): Closed
- Occlusion of retinal capillaries (retinal capillaries; [2]): Closed
- Occlusion of retinal capillaries (retinal capillaries; [3]): Open
- Occlusion of retinal capillaries (retinal capillaries; [4]): Open
- Occlusion of retinal capillaries (retinal capillaries; [5]): Closed
- Occlusion of retinal capillaries (retinal capillaries; [6]): Open
- Occlusion of retinal capillaries (retinal capillaries; [7]): Open
- Occlusion of retinal capillaries (retinal capillaries; [8]): Closed
- Occlusion of retinal capillaries (retinal capillaries; [9]): Closed
- Occlusion of retinal capillaries (retinal capillaries; [10]): Closed
- Occlusion of retinal capillaries (retinal capillaries; [11]): Closed
- Occlusion of retinal capillaries (retinal capillaries; [12]): Closed
- Occlusion of retinal capillaries (retinal capillaries; [13]): Closed
- Occlusion of retinal capillaries (retinal capillaries; [14]): Closed
- Occlusion of retinal capillaries (retinal capillaries; [15]): Closed
- Occlusion of retinal capillaries (retinal capillaries; [16]): Closed
